Experimental data taken from patent publication US11976083B2, “Inhibitors of peptidylarginine deiminases” (Gilead Sciences, Inc., priority 2020, dated 2024).

What follows are molecules tested against T1, human PAD4 (Homo sapiens, UniProt Q9UM07) (assay: In vitro PAD4 BAEE biochemical assay). Conditions: BAEE substrate 3 mM, 5 nM PAD4, 2 mM calcium chloride; geometric mean of multiple experiments.
T1 construct: human PAD4 (NM_012387), A2-P663, was PCR amplified; His-SUMO (N, cleaved yes); made in house; host or cells: E. coli BL21(DE3)
Summary of the method: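 Fluorescence read-out (ex 405/em 535 nm) of isoindole formed from ammonia, o-phthalaldehyde and DTT after EDTA stop. Reaction: 5 nM PAD4, 2 mM CaCl2, 3 mM BAEE, 2 h, 25 °C, after 30 min enzyme–compound preincubation. Normalised to BB-Cl-Amidine (50 µM) and DMSO controls.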

T1 sequence (Q9UM07 2-663): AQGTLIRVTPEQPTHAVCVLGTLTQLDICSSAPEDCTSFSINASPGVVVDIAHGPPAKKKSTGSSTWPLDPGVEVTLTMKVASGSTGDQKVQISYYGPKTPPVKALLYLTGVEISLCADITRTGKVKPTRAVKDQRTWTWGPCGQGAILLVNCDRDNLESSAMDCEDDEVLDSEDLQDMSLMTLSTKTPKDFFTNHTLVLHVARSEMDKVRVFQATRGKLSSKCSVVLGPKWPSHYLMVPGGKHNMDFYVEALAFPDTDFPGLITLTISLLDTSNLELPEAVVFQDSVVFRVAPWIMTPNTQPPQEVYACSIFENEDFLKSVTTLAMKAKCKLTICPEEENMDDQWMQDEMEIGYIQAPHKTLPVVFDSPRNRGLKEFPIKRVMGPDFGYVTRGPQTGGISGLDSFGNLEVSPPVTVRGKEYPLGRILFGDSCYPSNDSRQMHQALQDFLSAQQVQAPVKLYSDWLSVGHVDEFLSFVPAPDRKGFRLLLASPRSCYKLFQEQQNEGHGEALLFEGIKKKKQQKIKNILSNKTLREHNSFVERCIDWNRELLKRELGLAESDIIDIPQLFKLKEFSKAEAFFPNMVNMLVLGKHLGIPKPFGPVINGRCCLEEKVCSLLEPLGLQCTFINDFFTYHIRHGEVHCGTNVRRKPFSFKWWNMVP

IC50 [nM]	Compound
33	C[C@@H]1[C@H](N)CCCN1C(=O)c1cc(F)c2c(c1)nc(-c1cc3ccc4nc3n1CCCCCc1nc(Cl)ccc1C(=O)N[C@@H]4C)n2C [Example 741, (2~{R})-17-[5-[(2~{R},3~{R})-3-amino-2-methyl-piperidine-1-carbonyl]-7-fluoro-1-methyl-benzimidazol-2-yl]-8-chloro-2-methyl-3,9,16,22-tetrazatetracyclo[14.5.2.0^ {5,10}.0^{19,23}]tricosa-1(22),5(10),6,8,17,19(23),20-heptaen-4-one]
304	CC(C)n1c(-c2cc3ccc4nc3n2CCCCCCC(C)(C)C(=O)N[C@@H]4C)nc2cc(C(=O)N[C@H]3CNCC[C@@H]3F)c(F)cc21 [Example 421, 6-fluoro-~{N}-[(3~{S),4~{S})-4-fluoro-3-piperidyl]-1-isopropyl-2-[(11~{R})-8,8,11-trimethyl-9-oxo-1,10,19-triazatricyclo[10.5.2.0^{15,18}]nonadeca-12(19),13,15(18),16-tetraen-17-yl]benzimidazole-5-carboxamide]
137	COc1cc(C(=O)N2C[C@H](N)C[C@H](O)C2)cc2nc(-c3cc4ccc5nc4n3CCCCCCC(C)(C)C(=O)N[C@@H]5C)n(C)c12 [Example 536, (11~{R})-17-[5-[(3~{R},5~{S})-3-amino-5-hydroxy-piperidine-1-carbonyl]-7-methoxy-1-methyl-benzimidazol-2-yl]-8,8,11-trimethyl-1,10,19-triazatricyclo[10.5.2.0^ {15,18}]nonadeca-12(19), 13,15(18),16-tetraen-9-one]
104	CCOCCn1c(-c2cc3ccc4nc3n2CCCCCCC(C)(C)C(=O)N[C@@H]4C)nc2cc(C(=O)N[C@H]3CNCC[C@@H]3F)c(F)cc21 [Example 425, 1-(2-ethoxyethyl)-6-fluoro-~{N}-[(3~{S},4~{S})-4-fluoro-3-piperidyl]-2-[(11~{R})-8,8,11-trimethyl-9-oxo-1,10,19-triazatricyclo[10.5.2.0^{15,18}]nonadeca-12(19),13,15(18),16-tetraen-17-yl]benzimidazole-5-carboxamide]
81	COc1cc(C(=O)N2CCC[C@@H](N)C2)cc2nc(-c3cc4ccc5nc4n3C[C@@H]3C[C@H]3COC[C@@H](C)C(=O)N[C@@H]5C)n(C)c12 [Example 265, (5~{R},9~{R},12~{R})-18-[5-[(3~{R})-3-aminopiperidine-1-carbonyl]-7-methoxy-1-methyl-benzimidazol-2-yl]-9,12-dimethyl-7-oxa-1,11,20-triazatetracyclo[11.5.2.0^{3,5}.0^{16,19}] icosa-13(20),14,16(19),17-tetraen-10-one]
69	Cc1cc2c(cc1C(=O)N1[C@H]3CC[C@@H]1[C@H](N)C3)nc(-c1cc3ccc4nc3n1CCCCCCC(C)(C)C(=O)N[C@@H]4C)n2C [Example 556, (11~{R})-17-[5-[(1~{R}, 2~{R},4~{S})-2-amino-7-azabicyclo[2.2.1]heptane-7-carbonyl]-1,6-dimethyl-benzimidazol-2-yl]-8,8,11-trimethyl-1,10,19-triazatricyclo[10.5.2.0^ {15,18}]nonadeca-12(19),13,15(18),16-tetraen-9-one]
231	COc1cc(C(=O)N2CC[C@@H](OC)[C@@H](N)C2)cc2nc(-c3cc4ccc5nc4n3CCCCC[C@H]3C[C@]3(C)C(=O)N[C@@H]5C)n(C)c12 [Example 175]
16	COc1cc(C(=O)N2[C@H]3CC[C@@H]2[C@H](N)C3)cc2nc(-c3cc4ccc5nc4n3CCCCCCC(=O)N[C@@H]5C)c(C)n12 [Example 317, (10~{R})-16-[7-[(1~{R},2~{R},4~{S})-2-amino-7-azabicyclo[2.2.1]heptane-7-carbonyl]-5-methoxy-3-methyl-imidazo[1,2-a]pyridin-2-yl]-10-methyl-1,9,18-triazatricyclo[9.5.2.0^{14,17}]octadeca-11(18),12,14(17),15-tetraen-8-one]
41	C[C@H]1NC(=O)[C@H]2[C@H](CCCC(F)(F)Cn3c(-c4nc5cc(C(=O)N[C@H]6CNCC[C@@H]6F)c(F)cc5n4C)cc4ccc1nc43)C2(F)F [Example 378, 6-fluoro-~{N}-[(3~{S},4~{S})-4-fluoro-3-piperidyl]-1-methyl-2-[(2~{R},5~{R},7~{S})-6,6,11,11-tetrafluoro-2-methyl-4-oxo-3,13,19-triazatetracyclo[11.5.2.0^{5,7}.0^{16,20}]icosa-1(19),14,16(20),17-tetraen-14-yl]benzimidazole-5-carboxamide]
83	COc1cc(C(=O)N2CC[C@@H](OC)[C@@H](N)C2)cc2nc(-c3cc4ccc5nc4n3CCCCCC[C@@](F)(c3ccccn3)C(=O)N[C@@H]5C)n(C)c12 [Example 870, (8~{R},11~{R})-17-[5-[(3~ {S),4~{R})-3-amino-4-methoxy-piperidine-1-carbonyl]-7-methoxy-1-methyl-benzimidazol-2-yl]-8-fluoro-11-methyl-8-(2-pyridyl)-1,10,19-triazatricyclo[10.5.2.0^{15,18}] nonadeca-12(19), 13,15(18),16-tetraen-9-one]
51	C[C@H]1NC(=O)[C@@H]2C[C@H]2CCCCCn2c(-c3nc4cc(C(=O)N[C@H]5CNCC[C@@H]5F)c(F)cc4n3C3C[C@@H]3C(F)F)cc3ccc1nc32 (single isomer, unassigned) [Example 410, 1-[(1~{R},2~{S})-2-(difluoromethyl)cyclopropyl]-6-fluoro-~ {N}-[(3~{S},4~{S})-4-fluoro-3-piperidyl]-2-[(2~{R},5~{R},7~{R})-2-methyl-4-oxo-3,13,19-triazatetracyclo[11.5.2.0^{5,7}.0^{16,20}]icosa-1(19),14,16(20),17-tetraen-14-yl]benzimidazole-5-carboxamide]
17	COc1cc(C(=O)N2[C@H]3CC[C@@H]2[C@H](N)C3)cc2nc(-c3cc4ccc5nc4n3CCCCCC(=O)N[C@@H]5C)c(C)n12 [Example 320, (9~{R})-15-[7-[(1~{R},2~{R},4~{S})-2-amino-7-azabicyclo[2.2.1]heptane-7-carbonyl]-5-methoxy-3-methyl-imidazo[1,2-a]pyridin-2-yl]-9-methyl-1,8,17-triazatricyclo[8.5.2.0^{13,16}]heptadeca-10(17),11,13(16),14-tetraen-7-one]
52	COc1cc(C(=O)N2CCC[C@@H](N)C2)cc2nc(-c3cc4ccc5nc4n3CCCCCCCCCC(=O)N[C@@H]5C)c(C)n12 [Example 284, (13~{R})-19-[7-[(3~{R})-3-aminopiperidine-1-carbonyl]-5-methoxy-3-methyl-imidazo[1,2-a]pyridin-2-yl]-13-methyl-1,12,21-triazatricyclo[12.5.2.0^{17,20}]henicosa-14(21),15,17(20),18-tetraen-11-one]
409	COc1cc(C(=O)N[C@@H]2CNC[C@@H](O)C2)cc2nc(-c3cc4ccc5nc4n3CCCCCCC(C)(C)C(=O)N[C@@H]5C)n(C)c12 [Example 529, ~{N}-[(3~{S},5~{S})-5-hydroxy-3-piperidyl]-7-methoxy-1-methyl-2-[(11~{R})-8,8,11-trimethyl-9-oxo-1,10,19-triazatricyclo[10.5.2.0^{15,18}]nonadeca-12(19),13,15(18),16-tetraen-17-yl]benzimidazole-5-carboxamide]
57	COc1cc(C(=O)N2CC3(CCCNC3)C2)cc2nc(-c3cc4ccc5nc4n3CCCCC[C@@H]3CC3C(=O)N[C@@H]5C)n(C)c12 (stereo partly shown) [Example 508, (2~{R},7~{R})-14-[5-(2,8-diazaspiro [3.5]nonane-2-carbonyl)-7-methoxy-1-methyl-benzimidazol-2-yl]-2-methyl-3,13,19-triazatetracyclo[11.5.2.0^ {5,7}.0^{16,20}]icosa-1(19),14,16(20),17-tetraen-4-one]
22	CO[C@@H]1CCN(C(=O)c2cc(F)c3c(c2)nc(-c2cc4ccc5nc4n2CCCCCc2nc(Cl)ccc2C(=O)N[C@@H]5C)n3C2CC2)C[C@@H]1N [Example 789, (2~{R})-17-[5-[(3~{S},4~{R})-3-amino-4-methoxy-piperidine-1-carbonyl]-1-cyclopropyl-7-fluoro-benzimidazol-2-yl]-8-chloro-2-methyl-3,9,16,22-tetrazatetracyclo[14.5.2.0^ {5,10}.0^{19,23}]tricosa-1(21),5(10),6,8,17,19,22-heptaen-4-one]
5	C[C@@H]1[C@H](N)CCCN1C(=O)c1cc(F)c2c(c1)nc(-c1cc3ccc4nc3n1CCCCCc1nc3ccsc3cc1C(=O)N[C@@H]4C)n2C1CC1 [Example 796, (2~{R})-20-[5-[(2~{R},3~{R})-3-amino-2-methyl-piperidine-1-carbonyl]-1-cyclopropyl-7-fluoro-benzimidazol-2-yl]-2-methyl-8-thia-3,12,19,25-tetrazapentacyclo[17.5.2.0^ {5,13}.0^{7,11).0^{22,26}] hexacosa-1(24),5(13), 6,9,11,20,22,25-octaen-4-one]
497	COc1cc(C(=O)N2[C@H]3CC[C@@H]2[C@H](N)C3)cc2nc(-c3cc4ccc5nc4n3CCCCCCC(=O)Nc3ccncc3-5)n(C)c12 [Example 90, 17-[5-[(1~{R},2~{R},4~{S})-2-amino-7-azabicyclo[2.2.1]heptane-7-carbonyl]-7-methoxy-1-methyl-benzimidazol-2-yl]-4,8,16,22-tetrazatetracyclo[14.5.2.0^{2,7}.0^{19,23}] tricosa-1(22),2,4,6,17,19(23),20-heptaen-9-one]
334	COc1cc(C(=O)N2C[C@@H]3NCCO[C@@H]3C[C@@H]2C)cc2nc(-c3cc4ccc5nc4n3CC(F)(F)CCC[C@@H]3C[C@H]3C(=O)N[C@@H]5C)n(C)c12 [Example 801, (2~{R},5~{R},7~{R})-14-[5-[(4~{a}~{S),7~{S},8~{a}~ {R})-7-methyl-2,3,4,4~{a}, 5,7,8,8~{a}-octahydropyrido [4,3-b][1,4]oxazine-6-carbonyl]-7-methoxy-1-methyl-benzimidazol-2-yl]-11,11-difluoro-2-methyl-3,13,19-triazatetracyclo[11.5.2.0^ {5,7}.0^{16,20}]icosa-1(18),14,16,19-tetraen-4-one]
